In US7709471B2, “Compounds” (AstraZeneca AB, priority 2006, dated 2010):

Legend:
recombinant Plk1 = recombinant Plk1 (Homo sapiens, UniProt P53350); assay: In Vitro Plk1 Enzyme Assay (SPA, GST-Cdc25C phosphorylation); type: biochemical; settings: ATP 64 nM, 90 minutes, read-out: IC50 (Plk1 enzyme inhibition)
Description: Reactions were stopped by addition of EDTA (110 mM) and the Cdc25C substrate captured via its GST tag to anti-GST antibody (Molecular Probes, Cat No A-5800) coated Protein A PVT SPA beads (Amersham Biosciences, Catalogue No. RPQ0019; 250 μg/well) in 50 mM HEPES pH7.5 buffer containing 0.05% (w/v) sodium azide and incubated for up to 2 hours, followed by the addition of 20 μl of 4M caesium chloride (final assay concentration of 1M). Plates were then left in the dark overnight before counting on a Packard TopCount NXT.
Radiolabelled phosphorylated substrate is formed in situ as a result of Plk1 mediated phosphorylation. The SPA beads contain a scintillant that can be stimulated to emit light. This stimulation only occurs when a radiolabelled phosphorylated substrate is bound to the surface of the coated SPA bead causing the emission of blue light that can be measured on a scintillation counter. Accordingly, the extent of Plk1 mediated Cdc25C phosphorylation was assessed. The raw assay data were then analysed by non-linear regression analysis and Plk1 enzyme inhibition for a given test compound is expressed as an IC50 value.

[1] = tested on: human colon tumour cell line HT29; assay: Cellular Assay (phosphohistone H3 Ser10 mitotic marker, HT29); type: cell-based; settings: HT-29, 24 h, HT29 cells, read-out: IC50 (cellular assay, phosphohistone H3)
Description: Chromosome condensation in mitosis is accompanied by phosphorylation of histone H3 on serine 10.
After 24 hours, cells were fixed in 3.7% (v/v) formaldehyde then permeabilised and blocked for 10 minutes in 100 μl 0.5% (v/v) Triton X-100, 1% (w/v) bovine serum albumin (BSA) in phosphate buffered saline (PBS). […] The raw assay data were analysed by non-linear regression analysis and used to determine an IC50 value for each compound.

Chain of recombinant Plk1 (P53350 whole entry): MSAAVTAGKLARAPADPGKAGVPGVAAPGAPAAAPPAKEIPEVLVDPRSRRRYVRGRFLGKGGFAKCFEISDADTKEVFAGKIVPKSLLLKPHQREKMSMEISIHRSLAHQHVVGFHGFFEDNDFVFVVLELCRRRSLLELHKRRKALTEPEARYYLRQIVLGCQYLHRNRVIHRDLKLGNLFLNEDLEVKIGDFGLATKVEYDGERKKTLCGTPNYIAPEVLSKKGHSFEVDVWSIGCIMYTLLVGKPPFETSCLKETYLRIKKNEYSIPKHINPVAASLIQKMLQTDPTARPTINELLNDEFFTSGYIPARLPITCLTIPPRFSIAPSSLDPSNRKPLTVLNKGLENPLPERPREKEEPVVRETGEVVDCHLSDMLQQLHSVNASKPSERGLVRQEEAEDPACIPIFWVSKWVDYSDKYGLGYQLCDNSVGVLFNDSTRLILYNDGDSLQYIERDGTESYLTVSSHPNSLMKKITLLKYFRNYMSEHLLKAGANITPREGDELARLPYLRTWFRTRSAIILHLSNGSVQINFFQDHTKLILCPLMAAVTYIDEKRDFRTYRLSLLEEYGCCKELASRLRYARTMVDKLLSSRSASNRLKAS

**Q.** Which results are given for `COc1cc(C(=O)NC2CCN(C(=O)OC(C)(C)C)CC2)ccc1Nc1ncc2c(n1)N(C1CCCC1)CCC(=O)N2C` [Example 50, tert-butyl 4-[[4-[(6-cyclopentyl-2-methyl-3-oxo-2,6,8,10-tetrazabicyclo[5.4.0]undeca-8,10,12-trien-9-yl)amino]-3-methoxy-benzoyl]amino]piperidine-1-carboxylate]?
**A.** IC50 (recombinant Plk1): < 100000 nM; IC50 [1]: < 300 nM

**Q.** Which IC50 (recombinant Plk1) does the source give for `COc1cc(C(=O)N[C@H]2[C@@H]3CN(C(=O)OCc4ccccc4)C[C@@H]32)ccc1Nc1ncc2c(n1)N(C1CCCC1)CCC(=O)N2C` [Example 51, Benzyl(1S,5R)-6-[[4-[(6-cyclopentyl-2-methyl-3-oxo-2,6,8,10-tetrazabicyclo[5.4.0]undeca-8,10,12-trien-9-yl)amino]-3-methoxy-benzoyl]amino]-3-azabicyclo[3.1.0]hexane-3-carboxylate] here?
**A.** < 100000 nM

**Q.** What about the IC50 [1] of the same molecule?
**A.** < 1000 nM

**Q.** With `COc1cc(C(=O)N[C@@H]2CCN(C(=O)OC(C)(C)C)C2)ccc1Nc1ncc2c(n1)N(C1CCCC1)CCC(=O)N2C` [Example 52, tert-butyl (3R)-3-[[4-[(6-cyclopentyl-2-methyl-3-oxo-2,6,8,10-tetrazabicyclo[5.4.0]undeca-8,10,12-trien-9-yl)amino]-3-methoxy-benzoyl]amino]pyrrolidine-1-carboxylate] as the molecule, how does the IC50 (recombinant Plk1) read?
**A.** < 1000 nM

**Q.** What about the IC50 [1] of the same molecule?
**A.** < 300 nM

**Q.** What does the source list for `COc1cc(C(=O)N[C@H]2CCN(C(=O)OC(C)(C)C)C2)ccc1Nc1ncc2c(n1)N(C1CCCC1)CCC(=O)N2C` [Example 53, tert-butyl (3S)-3-[[4-[(6-cyclopentyl-2-methyl-3-oxo-2,6,8,10-tetrazabicyclo[5.4.0]undeca-8,10,12-trien-9-yl)amino]-3-methoxy-benzoyl]amino]pyrrolidine-1-carboxylate]?
**A.** IC50 (recombinant Plk1): < 100000 nM; IC50 [1]: < 1000 nM

**Q.** `COc1cc(C(=O)NC2CCN(C(=O)OCc3ccccc3)CC2)ccc1Nc1ncc2c(n1)N(C1CCCC1)CCC(=O)N2C` [Example 54, Benzyl 4-[[4-[(6-cyclopentyl-2-methyl-3-oxo-2,6,8,10-tetrazabicyclo[5.4.0]undeca-8,10,12-trien-9-yl)amino]-3-methoxy-benzoyl]amino]piperidine-1-carboxylate] was tested. Which IC50 (recombinant Plk1) did it give?
**A.** < 100000 nM

**Q.** And the IC50 [1]?
**A.** < 300 nM

**Q.** What does the source list for `COc1cc(C(=O)N[C@@H]2CCNC2)ccc1Nc1ncc2c(n1)N(C1CCCC1)CCC(=O)N2C` [Example 55, 4-[(6-cyclopentyl-2-methyl-3-oxo-2,6,8,10-tetrazabicyclo[5.4.0]undeca-8,10,12-trien-9-yl)amino]-3-methoxy-N-[(3R)-pyrrolidin-3-yl]benzamide]?
**A.** IC50 (recombinant Plk1): < 300 nM; IC50 [1]: < 300 nM

**Q.** How did the IC50 (recombinant Plk1) turn out when `COc1cc(C(=O)N[C@H]2CCNC2)ccc1Nc1ncc2c(n1)N(C1CCCC1)CCC(=O)N2C` [Example 56, 4-[(6-cyclopentyl-2-methyl-3-oxo-2,6,8,10-tetrazabicyclo[5.4.0]undeca-8,10,12-trien-9-yl)amino]-3-methoxy-N-[(3S)-pyrrolidin-3-yl]benzamide] was run?
**A.** < 300 nM

**Q.** What about the IC50 [1] of the same molecule?
**A.** < 1000 nM

**Q.** Which results are given for `COc1cc(C(=O)N[C@H]2[C@@H]3CNC[C@@H]32)ccc1Nc1ncc2c(n1)N(C1CCCC1)CCC(=O)N2C` [Example 57, N-[(1S,5R)-3-azabicyclo[3.1.0]hex-6-yl]-4-[(6-cyclopentyl-2-methyl-3-oxo-2,6,8,10-tetrazabicyclo[5.4.0]undeca-8,10,12-trien-9-yl)amino]-3-methoxy-benzamide]?
**A.** IC50 (recombinant Plk1): < 300 nM; IC50 [1]: < 300 nM

**Q.** How did the IC50 (recombinant Plk1) turn out when `CCN(CC)C1CCC(NC(=O)c2ccc(Nc3ncc4c(n3)N(C3CCCC3)CCC(=O)N4C)c(OC)c2)CC1` (centres unmarked) [Example 58, 4-[(6-cyclopentyl-2-methyl-3-oxo-2,6,8,10-tetrazabicyclo[5.4.0]undeca-8,10,12-trien-9-yl)amino]-N-(4-diethylaminocyclohexyl)-3-methoxy-benzamide] was run?
**A.** < 300 nM

**Q.** What about the IC50 [1] of the same molecule?
**A.** < 300 nM

**Q.** How did the IC50 (recombinant Plk1) turn out when `COc1cc(C(=O)N[C@H]2C[C@H]3CCC[C@@H](C2)N3C)ccc1Nc1ncc2c(n1)N(C1CCCC1)CCC(=O)N2C` [Example 59, 4-[(6-cyclopentyl-2-methyl-3-oxo-2,6,8,10-tetrazabicyclo[5.4.0]undeca-8,10,12-trien-9-yl)amino]-3-methoxy-N-[(1S,5R)-9-methyl-9-azabicyclo[3.3.1]non-7-yl]benzamide] was run?
**A.** < 300 nM

**Q.** What about the IC50 [1] of the same molecule?
**A.** < 300 nM

**Q.** With `COc1cc(C(=O)NC2CCC(N(C)C)CC2)ccc1Nc1ncc2c(n1)N(C1CCCC1)CCC(=O)N2C` (centres unmarked) [Example 60, 4-[(6-cyclopentyl-2-methyl-3-oxo-2,6,8,10-tetrazabicyclo[5.4.0]undeca-8,10,12-trien-9-yl)amino]-N-(4-dimethylaminocyclohexyl)-3-methoxy-benzamide] as the molecule, how does the IC50 (recombinant Plk1) read?
**A.** < 300 nM

**Q.** What about the IC50 [1] of the same molecule?
**A.** < 300 nM

**Q.** With `CCN1CCC(NC(=O)c2ccc(Nc3ncc4c(n3)N(C3CCCC3)CCC(=O)N4C)c(OC)c2)CC1` [Example 61, 4-[(6-cyclopentyl-2-methyl-3-oxo-2,6,8,10-tetrazabicyclo[5.4.0]undeca-8,10,12-trien-9-yl)amino]-N-(1-ethyl-4-piperidyl)-3-methoxy-benzamide] as the molecule, how does the IC50 (recombinant Plk1) read?
**A.** < 300 nM

**Q.** What about the IC50 [1] of the same molecule?
**A.** < 300 nM

**Q.** Which results are given for `COc1cc(C(=O)N[C@@H]2CCN(C)C2)ccc1Nc1ncc2c(n1)N(C1CCCC1)CCC(=O)N2C` [Example 62, 4-[(6-cyclopentyl-2-methyl-3-oxo-2,6,8,10-tetrazabicyclo[5.4.0]undeca-8,10,12-trien-9-yl)amino]-3-methoxy-N-[(3R)-1-methylpyrrolidin-3-yl]benzamide]?
**A.** IC50 (recombinant Plk1): < 300 nM; IC50 [1]: < 300 nM

**Q.** Which IC50 (recombinant Plk1) does the source give for `COc1cc(C(=O)N[C@H]2CCN(C)C2)ccc1Nc1ncc2c(n1)N(C1CCCC1)CCC(=O)N2C` [Example 63, 4-[(6-cyclopentyl-2-methyl-3-oxo-2,6,8,10-tetrazabicyclo[5.4.0]undeca-8,10,12-trien-9-yl)amino]-3-methoxy-N-[(3S)-1-methylpyrrolidin-3-yl]benzamide] here?
**A.** < 300 nM

**Q.** And the IC50 [1]?
**A.** < 300 nM

**Q.** Which results are given for `COc1cc(C(=O)N[C@H]2[C@@H]3CN(C)C[C@@H]32)ccc1Nc1ncc2c(n1)N(C1CCCC1)CCC(=O)N2C` [Example 64, 4-[(6-cyclopentyl-2-methyl-3-oxo-2,6,8,10-tetrazabicyclo[5.4.0]undeca-8,10,12-trien-9-yl)amino]-3-methoxy-N-[(1S,5R)-3-methyl-3-azabicyclo[3.1.0]hex-6-yl]benzamide]?
**A.** IC50 (recombinant Plk1): < 300 nM; IC50 [1]: < 300 nM

**Q.** What does the source list for `COc1cc(C(=O)Nc2ccncc2)ccc1Nc1ncc2c(n1)N(C1CCCC1)CCC(=O)N2C` [Example 67, 4-[(6-cyclopentyl-2-methyl-3-oxo-2,6,8,10-tetrazabicyclo[5.4.0]undeca-8,10,12-trien-9-yl)amino]-3-methoxy-N-pyridin-4-yl-benzamide]?
**A.** IC50 (recombinant Plk1): < 1000 nM; IC50 [1]: < 300 nM

**Q.** What does the source list for `COc1cc(C(=O)NCCCN2CCCCC2)ccc1Nc1ncc2c(n1)N(C1CCCC1)CCC(=O)N2C` [Example 69, 4-[(6-cyclopentyl-2-methyl-3-oxo-2,6,8,10-tetrazabicyclo[5.4.0]undeca-8,10,12-trien-9-yl)amino]-3-methoxy-N-[3-(1-piperidyl)propyl]benzamide]?
**A.** IC50 (recombinant Plk1): < 300 nM; IC50 [1]: < 300 nM

**Q.** With `COc1cc(C(=O)NCCCN2CCCCCC2)ccc1Nc1ncc2c(n1)N(C1CCCC1)CCC(=O)N2C` [Example 70, N-[3-(azepan-1-yl)propyl]-4-[(6-cyclopentyl-2-methyl-3-oxo-2,6,8,10-tetrazabicyclo[5.4.0]undeca-8,10,12-trien-9-yl)amino]-3-methoxy-benzamide] as the molecule, how does the IC50 (recombinant Plk1) read?
**A.** < 1000 nM

**Q.** And the IC50 [1]?
**A.** < 300 nM

**Q.** With `COc1cc(C(=O)NC2CC3CCC(C2)N3C)ccc1Nc1ncc2c(n1)N(C1CCCC1)CCC(=O)N2C` [Example 71, 4-[(6-cyclopentyl-2-methyl-3-oxo-2,6,8,10-tetrazabicyclo[5.4.0]undeca-8,10,12-trien-9-yl)amino]-3-methoxy-N-[(1S,5R)-8-methyl-8-azabicyclo[3.2.1]oct-3-yl]benzamide] as the molecule, how does the IC50 (recombinant Plk1) read?
**A.** < 300 nM

**Q.** What about the IC50 [1] of the same molecule?
**A.** < 300 nM

**Q.** How did the IC50 (recombinant Plk1) turn out when `COc1cc(C(=O)NC2CC(C)(C)N(C)C(C)(C)C2)ccc1Nc1ncc2c(n1)N(C1CCCC1)CCC(=O)N2C` [Example 72, 4-[(6-cyclopentyl-2-methyl-3-oxo-2,6,8,10-tetrazabicyclo[5.4.0]undeca-8,10,12-trien-9-yl)amino]-3-methoxy-N-(1,2,2,6,6-pentamethyl-4-piperidyl)benzamide] was run?
**A.** < 300 nM

**Q.** And the IC50 [1]?
**A.** < 300 nM

**Q.** With `COc1cc(C(=O)NC(C)CN2CCCCC2)ccc1Nc1ncc2c(n1)N(C1CCCC1)CCC(=O)N2C` (centres unmarked) [Example 73, 4-[(6-cyclopentyl-2-methyl-3-oxo-2,6,8,10-tetrazabicyclo[5.4.0]undeca-8,10,12-trien-9-yl)amino]-3-methoxy-N-[1-(1-piperidyl)propan-2-yl]benzamide] as the molecule, how does the IC50 (recombinant Plk1) read?
**A.** < 300 nM

**Q.** And the IC50 [1]?
**A.** < 300 nM

**Q.** With `COc1cc(C(=O)Nc2cccnc2)ccc1Nc1ncc2c(n1)N(C1CCCC1)CCC(=O)N2C` [Example 74, 4-[(6-cyclopentyl-2-methyl-3-oxo-2,6,8,10-tetrazabicyclo[5.4.0]undeca-8,10,12-trien-9-yl)amino]-3-methoxy-N-pyridin-3-yl-benzamide] as the molecule, how does the IC50 (recombinant Plk1) read?
**A.** < 100000 nM

**Q.** What about the IC50 [1] of the same molecule?
**A.** < 300 nM

**Q.** For `COc1cc(C(=O)NCC(C)(C)N2CCCCC2)ccc1Nc1ncc2c(n1)N(C1CCCC1)CCC(=O)N2C` [Example 75, 4-[(6-cyclopentyl-2-methyl-3-oxo-2,6,8,10-tetrazabicyclo[5.4.0]undeca-8,10,12-trien-9-yl)amino]-3-methoxy-N-[2-methyl-2-(1-piperidyl)propyl]benzamide], which IC50 (recombinant Plk1) is on record?
**A.** < 300 nM

**Q.** What about the IC50 [1] of the same molecule?
**A.** < 300 nM

**Q.** `COc1cc(C(=O)NCc2cccnc2)ccc1Nc1ncc2c(n1)N(C1CCCC1)CCC(=O)N2C` [Example 76, 4-[(6-cyclopentyl-2-methyl-3-oxo-2,6,8,10-tetrazabicyclo[5.4.0]undeca-8,10,12-trien-9-yl)amino]-3-methoxy-N-(pyridin-3-ylmethyl)benzamide] was tested. Which IC50 (recombinant Plk1) did it give?
**A.** < 1000 nM

**Q.** What about the IC50 [1] of the same molecule?
**A.** < 300 nM

**Q.** With `COc1ccc(NC(=O)c2ccc(Nc3ncc4c(n3)N(C3CCCC3)CCC(=O)N4C)c(OC)c2)cc1` [Example 77, 4-[(6-cyclopentyl-2-methyl-3-oxo-2,6,8,10-tetrazabicyclo[5.4.0]undeca-8,10,12-trien-9-yl)amino]-3-methoxy-N-(4-methoxyphenyl)benzamide] as the molecule, how does the IC50 (recombinant Plk1) read?
**A.** < 100000 nM

**Q.** What about the IC50 [1] of the same molecule?
**A.** < 1000 nM
